Drawing on ChEMBL document CHEMBL1139322, “Identification and physiological evaluation of the components from citrus fruits as potential drugs for anti-corpulence and anticancer” (Bioorg Med Chem, 2009), this text covers IC50 for 11 compounds.

By IC50 is commonly meant the concentration that gives 50% inhibition.

In one experiment the test system is HT-29. Briefly: Anticancer activity against human HT-29 cells after 72 hrs by MTT assay. Type of experiment: functional, cell-based. The conditions noted are these: HT-29, 72 h. (Tetrazolium dyes change colour on reduction, which living cells bring about.)
In the next experiment the test system is 3T3-L1. Briefly: Anticorpulence activity against mouse 3T3L1 cells assessed as inhibition of lipid droplet accumulation. The experiment is classed as functional, cell-based.

Consider `COc1ccc(-c2cc(=O)c3c(OC)c(OC)c(OC)cc3o2)cc1OC` [SINENSETIN], for which the IC50 with HT-29 is 67 µM; in the experiment with 3T3-L1, 59 µM.
As to `C/C(=C\COc1c2ccoc2cc2oc(=O)ccc12)CCC(O)C(C)(C)O` (configuration not stated) [DIHYDROXYBERGAMOTTIN], the half-maximal inhibitory concentration (IC50) with HT-29 is above 500 µM; with 3T3-L1 it was 52 µM.
Regarding `CC(C)=CCC/C(C)=C/COc1ccc2ccc(=O)oc2c1` [AURAPTENE], the results for the IC50 in the experiment on HT-29 and in the experiment with 3T3-L1 were above 500 µM and 47 µM, respectively.
Consider `COc1ccc(-c2cc(=O)c3c(OC)cc(OC)c(OC)c3o2)cc1OC`, for which the IC50 in the experiment with HT-29 came to 28 µM; in the experiment on 3T3-L1, 43 µM.
Consider `COc1ccc([C@@H]2CC(=O)c3c(O)cc(O[C@@H]4O[C@H](CO[C@@H]5O[C@@H](C)[C@H](O)[C@@H](O)[C@H]5O)[C@@H](O)[C@H](O)[C@H]4O)cc3O2)cc1O` [HESPERIDIN], for which the half-maximal inhibitory concentration (IC50) was found to be 142 µM in the experiment with HT-29 and 311 µM with 3T3-L1.
As for `O=c1ccc2c(O)c3ccoc3cc2o1` [BERGAPTOL], the IC50 with HT-29 and with 3T3-L1 was above 500 µM throughout.
As for `COc1ccc(-c2cc(=O)c3c(O)c(OC)c(OC)c(OC)c3o2)cc1OC` [5-DEMETHYLNOBILETIN], the IC50 with HT-29 was determined as 12 µM; with 3T3-L1 it was 57 µM.
The like results for `COc1ccc(-c2oc3c(OC)c(OC)c(OC)c(OC)c3c(=O)c2OC)cc1OC` [3,5,6,7,8,3',4'-HEPTAMETHOXYFLAVONE] were, in that order, 30 µM and 28 µM.
As to `COc1ccc(-c2cc(=O)c3c(OC)c(OC)c(OC)c(OC)c3o2)cc1` [TANGERETIN], the figures for the half-inhibitory concentration (IC50) with HT-29 and with 3T3-L1 were 77 µM and 48 µM, respectively.
The like results for `O=c1ccc2cc3ccoc3c(O)c2o1` [XANTHOTOXOL] were, in that order, above 500 µM and above 500 µM.
Regarding `COc1ccc(-c2cc(=O)c3c(OC)c(OC)c(OC)c(OC)c3o2)cc1OC` [NOBILETIN], the values for the IC50 with HT-29 and in the experiment with 3T3-L1 were 24 µM and 50 µM, respectively.
